Among the data in patent US12678446B2 (PFIZER INC., priority 2020, dated 2026) are EC50 and CC50 values, retold here.

Data set [1] deals with RSV (RSV A2 ECACC, 0709161v). Nature of the data set: RSV plaque reduction assay. Particulars: mean of at least two experiments unless noted (n = 1). Type of data set: cell-based, respiratory syncytial virus. A digest of the protocol: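 Eight-point compound dilutions were premixed with RSV A2 (100 PFU/well) and applied to confluent Hep-G2 cells for 2 h, followed by a 2-day incubation at 37° C. under compound-containing 0.8% CMC overlay. EC50 comes from immunostained plaque counts relative to untreated virus wells, averaged over ≥2 runs.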

Another data set relates to Hep-G2 cells. Nature of the data set: cell toxicity CC50. Type of data set: cell-based. Particulars: mean of at least two experiments, read-out: Cell Cytotoxicity CC50.
Another data set in a line: cell toxicity CC50. Type of data set: cell-based. Particulars: human; Hep-G2 cells; mean of at least two experiments; read-out: Cell Cytotoxicity CC50.
The mark [2] stands for this setting: RSV A2 in Hep-G2 cells, read-out: RSV A2 Plaque EC50.
The mark [3] stands for this setting: human respiratory syncytial virus, HepG2, read-out: RSV A2 Plaque EC50, RSV A2 in Hep-G2 cells.

Read-outs that look alike come from different tables or passages of the source.

For orientation: EC50 means the midpoint of the concentration-response curve. As usually defined, the CC50 is the concentration that lowers cell viability or growth by half. Regarding “(5R)-N-[(3S)-9- fluoro-2-oxo-5- phenyl-1,3-dihydro- 1,4-benzodiazepin-3- yl]-5-methyl-2-[1- (oxan-4-yl)pyrazol- 4-yl]-6,7-dihydro- 5H-pyrazolo[5,1- b][1,3]oxazine-3- carboxamide [Example 111]”, the EC50 in data set [1] (setting [2]) turned out to be 64 nM. The CC50 in the data set with Hep-G2 cells is more than 25000 nM.

Regarding `COCC1CCn2nc(-c3ccccc3F)c(C(=O)N[C@H]3N=C(c4ccccc4)c4cccc(F)c4NC3=O)c2O1` (single isomer, unassigned) [Example 191-2, (5S*)-N-[(3S)-9-fluoro-2-oxo-5-phenyl-1,3-dihydro-1,4-benzodiazepin-3-yl]-2-(2-fluorophenyl)-5-(methoxymethyl)-6,7-dihydro-5H-pyrazolo[5,1-b][1,3]oxazine-3-carboxamide], the EC50 in data set [1] (read-out: RSV A2 Plaque EC50, RSV A2 in Hep-G2 cells) stood at 280 nM. Further, the CC50 in the data set with Hep-G2 cells was more than 25000 nM.

For the compound “(5R)-2-[2-Fluoro-4- (hydroxymethyl)phe- nyl]-N-[(3S)-9- fluoro-2-oxo-5- phenyl-1,3-dihydro- 1,4-benzodiazepin-3- yl]-5-methyl-6,7- dihydro-5H- pyrazolo[5,1- b][1,3]oxazine-3- carboxamide [Example 153]”, in data set [1] (setting [2]), the EC50 was found to be 63 nM. Also, in the data set on Hep-G2 cells, the CC50 is more than 25000 nM.

For `CCc1ncc(-c2nn3c(c2C(=O)N[C@H]2N=C(c4ccccc4)c4cccc(F)c4NC2=O)O[C@H](C)CC3)cn1` [Example 60, (5R)-2-(2-Ethylpyrimidin-5-yl)-N-[(3S)-9-fluoro-2-oxo-5-phenyl-1,3-dihydro-1,4-benzodiazepin-3-yl]-5-methyl-6,7-dihydro-5H-pyrazolo[5,1-b][1,3]oxazine-3-carboxamide], the EC50 in data set [1] (setting [3]) worked out at 167 nM. The CC50 in the data set “cell toxicity CC50” was more than 25000 nM.

As for `CC(C)Nc1ccc(-c2nn3c(c2C(=O)N[C@H]2N=C(c4ccccc4)c4ccccc4NC2=O)OCC2(CC2)C3)cn1` [Example 178, 2-[6-(Propan-2-ylamino)pyridin-3-yl]-N-[(3S)-2-oxo-5-phenyl-1,3-dihydro-1,4-benzodiazepin-3-yl]spiro[5,7-dihydropyrazolo[5,1-b][1,3]oxazine-6,1′-cyclopropane]-3-carboxamide], in data set [1] (setting [3]), the EC50 amounted to 75 nM. Further, the CC50 in “cell toxicity CC50” was more than 25000 nM.

On to `C[C@@H]1CCn2nc(-c3ccc(CC(C)(C)O)nc3)c(C(=O)N[C@H]3N=C(c4ccccc4)c4cccc(F)c4NC3=O)c2O1` [Example 85, (5R)-2-[6-(2-Hydroxy-2-methylpropyl)pyridin-3-yl]-5-methyl-N-[(3S)-9-fluoro-2-oxo-5-phenyl-1,3-dihydro-1,4-benzodiazepin-3-yl]-6,7-dihydro-5H-pyrazolo[5,1-b][1,3]oxazine-3-carboxamide], for which the EC50 in data set [1] (setting [3]) came out at 121 nM. Further, in the data set “cell toxicity CC50”, the CC50 was more than 25000 nM.

For the compound `CN(C)CC1COc2c(C(=O)N[C@H]3N=C(c4ccccc4)c4cccc(F)c4NC3=O)c(-c3ccccc3F)nn2C1` (mixture of isomers) [Example 171, 6-[(Dimethylamino)methyl]-N-[(3S)-9-fluoro-2-oxo-5-phenyl-1,3-dihydro-1,4-benzodiazepin-3-yl]-2-(2-fluorophenyl)-6,7-dihydro-5H-pyrazolo[5,1-b][1,3]oxazine-3-carboxamide], in data set [1] (setting [3]), the EC50 was 59 nM. Moreover, the CC50 in the data set “cell toxicity CC50” is more than 25000 nM.

In the case of `CN(C)CC1COc2c(C(=O)N[C@H]3N=C(c4ccccc4)c4cccc(F)c4NC3=O)c(-c3ccccc3F)nn2C1` (stereo in doubt) [Example 171-1, (6R*)-6-[(Dimethylamino)methyl]-N-[(3S)-9-fluoro-2-oxo-5-phenyl-1,3-dihydro-1,4-benzodiazepin-3-yl]-2-(2-fluorophenyl)-6,7-dihydro-5H-pyrazolo[5,1-b][1,3]oxazine-3-carboxamide], the EC50 in data set [1] (setting [3]) was found to be 53 nM. Also, in “cell toxicity CC50”, the CC50 is more than 25000 nM.

For the compound `O=C(N[C@H]1N=C(c2ccccc2)c2cccc(F)c2NC1=O)c1c(-c2ccccc2F)nn2c1OC1(CC2)CC1` [Example 7, N-[(3S)-9-fluoro-2-oxo-5-phenyl-1,3-dihydro-1,4-benzodiazepin-3-yl]-2-(2-fluorophenyl)spiro[6,7-dihydropyrazolo[5,1-b][1,3]oxazine-5,1′-cyclopropane]-3-carboxamide], the EC50 in data set [1] (setting [3]) was 32 nM. The CC50 in the data set “cell toxicity CC50” was more than 25000 nM.

As to `O=C(N[C@H]1N=C(c2ccccc2)c2ccccc2NC1=O)c1nn2c(c1-c1ccccc1F)OCC2` [Example 37, 7-(2-Fluorophenyl)-N-[(3S)-2-oxo-5-phenyl-1,3-dihydro-1,4-benzodiazepin-3-yl]-2,3-dihydropyrazolo[5,1-b][1,3]oxazole-6-carboxamide], the EC50 in data set [1] (setting [3]) amounted to 333 nM. For the same compound, the CC50 in the data set “cell toxicity CC50” was more than 25000 nM.

For `CCn1ccc(-c2nn3c(c2C(=O)N[C@H]2N=C(c4ccccc4)c4cccc(F)c4NC2=O)O[C@H](C)CC3)n1` [Example 68, (5R)-2-(1-Ethylpyrazol-3-yl)-N-[(3S)-9-fluoro-2-oxo-5-phenyl-1,3-dihydro-1,4-benzodiazepin-3-yl]-5-methyl-6,7-dihydro-5H-pyrazolo[5,1-b][1,3]oxazine-3-carboxamide], the EC50 in data set [1] (setting [3]) stood at 307 nM. For the same compound, in the data set “cell toxicity CC50”, the CC50 was more than 25000 nM.

Consider `CCc1ccc(-c2nn3c(c2C(=O)N[C@H]2N=C(c4ccccc4)c4cccc(F)c4NC2=O)O[C@H](C)CC3)c(F)c1` [Example 75, (5R)-2-(4-Ethyl-2-fluorophenyl)-5-methyl-N-[(3S)-9-fluoro-2-oxo-5-phenyl-1,3-dihydro-1,4-benzodiazepin-3-yl]-6,7-dihydro-5H-pyrazolo[5,1-b][1,3]oxazine-3-carboxamide], for which the EC50 in data set [1] (setting [3]) stood at 158 nM. In addition, in “cell toxicity CC50”, the CC50 was more than 25000 nM.

On to `O=C(N[C@H]1N=C(c2ccccc2)c2cccc(F)c2NC1=O)c1c(-c2cnn(CC(F)(F)F)c2)nn2c1OCCC2` [Example 150, N-[(3S)-9-fluoro-2-oxo-5-phenyl-1,3-dihydro-1,4-benzodiazepin-3-yl]-2-[1-(2,2,2-trifluoroethyl)pyrazol-4-yl]-6,7-dihydro-5H-pyrazolo[5,1-b][1,3]oxazine-3-carboxamide], for which the EC50 in data set [1] (setting [3]) came to 61 nM. Also, the CC50 in “cell toxicity CC50” was more than 25000 nM.

Consider `O=C(N[C@H]1N=C(c2ccccc2)c2ccccc2NC1=O)c1c(-c2ccc(F)cc2F)nn2c1OCCC2` [Example 1, 2-(2,4-Difluorophenyl)-N-[(3S)-2-oxo-5-phenyl-1,3-dihydro-1,4-benzodiazepin-3-yl]-6,7-dihydro-5H-pyrazolo[5,1-b][1,3]oxazine-3-carboxamide], for which the EC50 in data set [1] (setting [3]) came out at 33 nM. In addition, in “cell toxicity CC50”, the CC50 is more than 25000 nM.

Regarding `C[S+]([O-])c1ccc(-c2nn3c(c2C(=O)N[C@H]2N=C(c4ccccc4)c4cccc(F)c4NC2=O)OCCC3)c(F)c1` (stereo partly drawn) [Example 194, 2-(2-Fluoro-4-methylsulfinylphenyl)-N-[(3S)-9-fluoro-2-oxo-5-phenyl-1,3-dihydro-1,4-benzodiazepin-3-yl]-6,7-dihydro-5H-pyrazolo[5,1-b][1,3]oxazine-3-carboxamide], in data set [1] (setting [3]), the EC50 stood at 43 nM. In addition, the CC50 in “cell toxicity CC50” was more than 25000 nM.

Take `COC1COc2c(C(=O)N[C@H]3N=C(c4ccccc4)c4cccc(F)c4NC3=O)c(-c3ccccc3F)nn2C1` (stereo partly drawn) [Example 175, 2-(2-Fluorophenyl)-6-methoxy-N-[(3S)-9-fluoro-2-oxo-5-phenyl-1,3-dihydro-1,4-benzodiazepin-3-yl]-6,7-dihydro-5H-pyrazolo[5,1-b][1,3]oxazine-3-carboxamide]: the EC50 in data set [1] (setting [3]) was determined as 61 nM. The CC50 in the data set “cell toxicity CC50” is more than 25000 nM.

For the compound `O=C(N[C@H]1N=C(c2ccccc2)c2cccc(F)c2NC1=O)c1c(-c2ccccc2F)nn2c1OCC1(CC1)C2` [Example 13], in data set [1] (setting [3]), the EC50 came out at 28 nM. Besides, in “cell toxicity CC50”, the CC50 is more than 24000 nM.

`C[C@@H]1CCn2nc(Nc3ccccc3)c(C(=O)N[C@H]3N=C(c4ccccc4)c4cccc(F)c4NC3=O)c2O1` [Example 95, (5R)-2-Anilino-5-methyl-N-[(3S)-9-fluoro-2-oxo-5-phenyl-1,3-dihydro-1,4-benzodiazepin-3-yl]-6,7-dihydro-5H-pyrazolo[5,1-b][1,3]oxazine-3-carboxamide]: in data set [1] (setting [3]), the EC50 is 357 nM. The CC50 in the data set “cell toxicity CC50” is more than 25000 nM.

As for `C[C@@H]1Cn2nc(-c3ccccc3F)c(C(=O)N[C@H]3N=C(c4ccccc4)c4ccccc4NC3=O)c2O1` [Example 202, (2R)-6-(2-Fluorophenyl)-2-methyl-N-[(3S)-2-oxo-5-phenyl-1,3-dihydro-1,4-benzodiazepin-3-yl]-2,3-dihydropyrazolo[5,1-b][1,3]oxazole-7-carboxamide], in data set [1] (setting [3]), the EC50 was determined as 127 nM. Further, the CC50 in the data set “cell toxicity CC50” was more than 25000 nM.

As for `CCn1cc(-c2nn3c(c2C(=O)N[C@H]2N=C(c4ccccc4)c4cccc(F)c4NC2=O)O[C@H](C)CC3)cn1` [Example 84, (5R)-2-(1-Ethylpyrazol-4-yl)-N-[(3S)-9-fluoro-2-oxo-5-phenyl-1,3-dihydro-1,4-benzodiazepin-3-yl]-5-methyl-6,7-dihydro-5H-pyrazolo[5,1-b][1,3]oxazine-3-carboxamide], the EC50 in data set [1] (setting [3]) is 70 nM. Moreover, in “cell toxicity CC50”, the CC50 was more than 25000 nM.

Take `O=C(N[C@H]1N=C(c2ccccc2)c2cccc(F)c2NC1=O)c1c(-c2ccccc2F)nn2c1S(=O)(=O)CCC2` [Example 33, 2-(2-Fluorophenyl)-N-[(3S)-9-fluoro-2-oxo-5-phenyl-2,3-dihydro-1H-1,4-benzodiazepin-3-yl]-4,4-dioxo-5H,6H,7H-4λ^6-pyrazolo[3,2-b][1,3]thiazine-3-carboxamide]: the EC50 in data set [1] (setting [3]) was determined as 474 nM. For the same compound, in the data set “cell toxicity CC50”, the CC50 is more than 25000 nM.
